How the values were obtained:
[1] = test system: Plasmopara viticola; assay: Test A: grape downy mildew, curative spray on inoculated grape seedlings, visual disease rating; assay type: in vivo, Plasmopara viticola (on grape seedlings); settings: 40 ppm, rating 100 = 100% disease control, 0 = no disease control relative to the controls
[2] = test system: Phytophthora infestans; assay type: in vivo, Phytophthora infestans (on tomato seedlings); settings: 40 ppm; tomato late blight, preventive; rating 100 = 100% disease control, 0 = no disease control relative to the controls
[3] = test system: Phytophthora infestans; assay type: in vivo, Phytophthora infestans (on tomato seedlings); settings: 40 ppm; tomato late blight, curative (17 h after inoculation); rating 100 = 100% disease control, 0 = no disease control relative to the controls

Cc1cc(C(F)(F)F)nn1CC(=O)N1CCC(c2nc3c(s2)CCC(Cc2c(F)cccc2F)C3=O)CC1 (single isomer, unassigned) [Compound 6, 5-[(2,6-difluorophenyl)methyl]-6,7-dihydro-2-[1-[2-[5-methyl-3-(trifluoromethylene)-1H-pyrazol-1-yl]acetyl]-4-piperidinyl]-4(5H)-benzothiazolone]
Test A rating (disease control) [1]: 78 | Test B1 rating (disease control) [2]: 100 | Test B2 rating (disease control) [3]: 78

Cc1cc(C(F)(F)F)nn1CC(=O)N1CCC(c2nc3c(s2)CCC(Cc2c(F)cccc2F)C3=O)CC1 (single isomer, unassigned) [Compound 5, 5-[(2,6-difluorophenyl)methyl]-6,7-dihydro-2-[1-[2-[5-methyl-3-(trifluoromethyl)-1H-pyrazol-1-yl]acetyl]-4-piperidinyl]-4(5H)-benzonthiazolone]
Test A rating (disease control) [1]: 99 | Test B1 rating (disease control) [2]: 100 | Test B2 rating (disease control) [3]: 99

Cc1cc(C(F)(F)F)nn1CC(=O)N1CCC(c2nc3c(s2)CCN(Cc2ccccc2)C3=O)CC1 [Compound 8, 6,7-dihydro-2-[1-[2-[5-methyl-3-(trifluoromethyl)-1H-pyrazol-1-yl]acetyl]-4-piperidinyl]-5-(phenylmethyl)thiazolo[4,5-c]pyridin-4(5H)-one]
Test A rating (disease control) [1]: 100 | Test B1 rating (disease control) [2]: 100 | Test B2 rating (disease control) [3]: 99

Reference: patent US20150336985A1, “FUNGICIDAL HETEROCYCLIC COMPOUNDS” (E. I. DU PONT DE NEMOURS AND COMPANY, priority 2012, published 2015)
